Measured values as given in patent publication US20230130831A1, “METHODS FOR DETECTING AND TREATING JOINT DISEASE” (Washington University, priority 2021, published 2023).
Where a SMILES comes first, the peptide text is derived from it. Bridges are numbered along the chain shown (N, C = ends). [ ]: non-standard residue; d: D form. The star is where a group is joined. X1 = CC1(C)C(/C=C/C=C/C=C/C=C2/N(CCC(=O)*)c3ccc4ccccc4c3C2(C)C)=[N+](CCC(=O)[O-])c2ccc3ccccc3c21

How the values were obtained:
pANXA2 = pANXA2 (Homo sapiens, UniProt P07355); conditions: previously found; cited from earlier work
pANXA2, sequence (P07355 whole entry): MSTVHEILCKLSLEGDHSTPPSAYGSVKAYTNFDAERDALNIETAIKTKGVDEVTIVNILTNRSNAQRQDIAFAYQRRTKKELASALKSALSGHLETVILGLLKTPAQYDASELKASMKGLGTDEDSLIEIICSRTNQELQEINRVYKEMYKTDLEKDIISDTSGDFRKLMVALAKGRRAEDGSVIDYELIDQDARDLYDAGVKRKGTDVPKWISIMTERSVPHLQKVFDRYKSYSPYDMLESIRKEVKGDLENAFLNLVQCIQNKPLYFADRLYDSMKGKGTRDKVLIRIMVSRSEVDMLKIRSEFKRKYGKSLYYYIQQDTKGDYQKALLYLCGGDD

[1] = system: C57BL/6 mice with induced arthritis (K/BxN serum transfer); test: Serum transfer arthritis: clinical paw scores and ankle thickness after treatment; type: in vivo, mouse
Experimental: To establish serum transfer arthritis (STA), male 6-8 weeks old C57BL/6J mice were injected intraperitoneally with 150-175 μL of serum derived from F1 mice (8-9 weeks old). Day 0 denoted induction of serum transfer/disease. Clinical manifestation of arthritis in each paw was assessed daily on a scale of 0-3 with 0=no swelling or erythema, 1=slight swelling or erythema, 2=moderate erythema and swelling in multiple digits or entire paw, and 3=pronounced erythema and swelling of an entire paw, with a maximum score of 12 per mouse. The ankle thickness of two hind paws was measured using calipers. Animals were monitored for distress during arthritis induction, including their ability to move around the cage and access food/water. Experiments were blinded, where the technician responsible for clinical assessment of paw score and ankle measurements was blinded to treatment groups. […] Clinical paw scores and ankle measurements were obtained daily. […] Mice received intraperitoneal DEX (10 mg/kg/dose) daily over 6 days. Clinical paw scores and ankle measurements were obtained daily. […] C57BL/6 mice with induced arthritis (K/Bxn serum transfer) were imaged with 6 nmol intravenous LS301 at day 4 post-disease induction. […] Individual limbs of the mice were scored for paw edema and measured for ankle thickness by calipers.

[2] = system: C57BL/6J mice with serum transfer arthritis; conditions: mouse, in vivo
Experimental: Animals were shaved. Excess hair was removed using commercially available hair removal cream. Mice were anesthetized with isoflurane for injection and imaging procedures. LS301 stock (or LS301-methotrexate or LS301-methylprednisolone derivative stock) in dimethyl sulfoxide solution was diluted in phosphate-buffered saline to a final concentration of 60 μM and injected via tail vein into mice. In-vivo near-infrared fluorescence using 785 nm excitation and 820 nm emission filters was assessed pre-injection, post-injection, and/or at indicated time points post-injection with a Pearl Small Animal Imaging System (LICOR Biotechnology, Lincoln, Nebr.). Regions of interest (ROIs) for fluorescence quantitation were drawn and analyzed using the Pearl Small Animal Imaging System software.
C57BL/6J mice with serum arthritis (days 5-6 post serum transfer) (left) or control C57BL/6J mice (right) were injected intravenously with 6 nmol LS301. […] Near-infrared fluorescence images were taken on the Pearl animal imaging system with λ=820 nm. […] ROIs were drawn around each organ/limb of interest and quantitated using the Pearl animal imaging system software.
C57BL/6 mice with induced arthritis (K/Bxn serum transfer, days 5-6 post serum transfer) were injected subcutaneously (flank) with 6 nmol LS301. […] Near-infrared fluorescence images were taken on Pearl Imaging System with λ=800 nm.

[3] = system: K/BxN (F1) mice with spontaneous arthritis; test: Whole-body near-infrared fluorescence imaging in K/BxN spontaneous arthritis mice
Experimental: The K/BxN mice with spontaneous arthritis (F1) were maintained in the laboratory. To establish serum transfer arthritis (STA), male 6-8 weeks old C57BL/6J mice were injected intraperitoneally with 150-175 μL of serum derived from F1 mice (8-9 weeks old). Day 0 denoted induction of serum transfer/disease. Clinical manifestation of arthritis in each paw was assessed daily on a scale of 0-3 with 0=no swelling or erythema, 1=slight swelling or erythema, 2=moderate erythema and swelling in multiple digits or entire paw, and 3=pronounced erythema and swelling of an entire paw, with a maximum score of 12 per mouse. The ankle thickness of two hind paws was measured using calipers. Animals were monitored for distress during arthritis induction, including their ability to move around the cage and access food/water.
In the K/BxN (F1) mice with spontaneous arthritis, inflammation occurs progressively in the paws, ankle, and knee joints leading to measurable local erythema and swelling. F1 mice with severe arthritis (9-10 weeks old) were injected intravenously with LS301 and imaged 18 h post-injection for near-infrared fluorescence using the Pearl Small Animal Imaging System.
Arthritic or control (non-diseased) mice were injected intravenously with 6 nmol LS301. […] Images shown represented at least two independent experiments and were taken at 18 h post-injection with mice in dorsal orientation.
Mice were injected intravenously with 6 nmol LS301. […] Images shown were taken at 18 h post-injection with mice in dorsal orientation. (A) Early stage RA (3-4 week old K/Bxn mice). (B) Intermediate stage RA ([…] K/Bxn mice). (C) Late-stage RA (9-10 week old K/Bxn mice). (D) Normal (control) C57BL/6J mice. (E) K/Bxn mice (3-4 weeks old) were injected with cypate dye (control) instead of LS301.
K/BxN mice (9-10 wk. old) were injected intravenously with 6 nmol LS301.

[4] = system: Raw 264.7 macrophage cells; test: In-vitro anti-inflammatory effect: LPS-induced cytokines by cytokine bead array; type: cell-based; conditions: combined with near-infrared (780 nm) laser irradiation
Experimental: MTX alone and controls. Raw 264.7 macrophage cells were treated with methotrexate (MTX), LS301-MTX, LS301 alone, or LS301 combined with near-infrared (780 nm) laser irradiation. Levels of inflammation-associated (LPS-induced) cytokines, including IL-6 and IL-10, were measured by cytokine bead array.

For `CC1(C)C(/C=C/C=C/C=C/C=C2/N(CCC(=O)N[C@@H]3CSSC[C@@H](C(=O)N[C@@H](CCCCN)C(=O)O)NC(=O)[C@@H]4CCCN4C(=O)[C@H](CO)NC(=O)[C@H](CC(=O)O)NC(=O)[C@H](CCCNC(=N)N)NC(=O)CNC3=O)c3ccc4ccccc4c3C2(C)C)=[N+](CCC(=O)[O-])c2ccc3ccccc3c21` [LS301, cypate-cyclic (DCys-Gly-Arg-Asp-Ser-Pro-Cys)-Lys-OH] (X1-[dC]GRDSPCK-OH; disulfide 1-7), the “affinity for pANXA2” value (pANXA2) is given as “high affinity”, the “effect on disease progression” value ([1]; imaging dose (6 nmol), LS301 alone) is given as “did not significantly affect disease progression” and the “kidney signal, arthritic mice vs controls” value [2] is given as “possible nonsignificant trend toward increased kidney signal in arthritic mice when compared to controls”. The “clearance from the body” value ([3]; mouse, in vivo, iv) was 2.5 days, the “time point of contrast post-injection” value ([3]; mouse, in vivo, iv) was ~18 h and the “inflammatory state of macrophages (LPS-induced cytokines incl. IL-6, IL-10)” value [4] was “suppress the inflammatory state of macrophages”.

With `CC1(C)C(/C=C/C=C/C=C/C=C2/N(CCC(=O)O)c3ccc4ccccc4c3C2(C)C)=[N+](CCC(=O)[O-])c2ccc3ccccc3c21` [cypate, reference compound] the “accumulation in extremities / regions of arthritic joint disease” value ([3]; K/BxN F1 arthritic mice, i.v., 18 h) was “No accumulation was found in extremities”.

With `CN(Cc1cnc2nc(N)nc(N)c2n1)c1ccc(C(=O)N[C@@H](CCC(=O)O)C(=O)O)cc1` [methotrexate, reference compound] the clinical scores ([1]; three doses i.p. 2 mg/kg/dose over seven days, day 23 post-treatment initiation) was “clinical scores of mice had significantly decreased”.
